# Earlier results, collected in US20130165511A1, “TREATMENT FOR COCAINE ADDICTION” (priority 2010, published 2013).
# Tests used:
# ALDH-I = target: T1, ALDH-I (Homo sapiens, UniProt P05091)
# T1 sequence (P05091 18-517): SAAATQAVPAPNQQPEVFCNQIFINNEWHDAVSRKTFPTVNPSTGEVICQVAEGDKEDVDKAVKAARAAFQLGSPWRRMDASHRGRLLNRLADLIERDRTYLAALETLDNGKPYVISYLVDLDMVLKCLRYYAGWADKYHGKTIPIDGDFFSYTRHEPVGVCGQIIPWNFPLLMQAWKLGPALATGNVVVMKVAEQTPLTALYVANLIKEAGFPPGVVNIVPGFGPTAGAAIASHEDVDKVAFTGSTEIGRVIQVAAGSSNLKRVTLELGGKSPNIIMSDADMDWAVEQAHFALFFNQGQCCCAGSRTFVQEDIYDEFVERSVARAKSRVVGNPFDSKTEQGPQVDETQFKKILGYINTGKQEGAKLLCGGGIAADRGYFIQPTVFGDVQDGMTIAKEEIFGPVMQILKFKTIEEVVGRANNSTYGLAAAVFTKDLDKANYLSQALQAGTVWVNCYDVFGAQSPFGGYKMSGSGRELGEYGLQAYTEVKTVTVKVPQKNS
# CYP2D6 = CYP2D6 (Homo sapiens, UniProt P10635)
# Chain of CYP2D6 (P10635 whole entry): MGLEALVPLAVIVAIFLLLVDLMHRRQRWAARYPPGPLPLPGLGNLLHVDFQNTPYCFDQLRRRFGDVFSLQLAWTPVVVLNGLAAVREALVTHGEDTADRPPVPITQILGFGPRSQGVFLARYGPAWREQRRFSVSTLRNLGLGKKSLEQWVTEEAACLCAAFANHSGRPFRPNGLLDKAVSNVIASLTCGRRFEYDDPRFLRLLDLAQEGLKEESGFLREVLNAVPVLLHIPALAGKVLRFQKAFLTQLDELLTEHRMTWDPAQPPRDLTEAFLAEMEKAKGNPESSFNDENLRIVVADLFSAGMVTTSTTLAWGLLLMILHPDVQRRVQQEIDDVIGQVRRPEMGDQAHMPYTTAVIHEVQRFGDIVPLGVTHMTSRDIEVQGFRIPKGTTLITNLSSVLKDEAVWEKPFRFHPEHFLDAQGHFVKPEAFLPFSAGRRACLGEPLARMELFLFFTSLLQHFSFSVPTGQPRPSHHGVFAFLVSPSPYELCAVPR
# CYP2B6 = target: T2, CYP2B6 (Homo sapiens, UniProt P20813)
# T2 sequence (P20813 1-491): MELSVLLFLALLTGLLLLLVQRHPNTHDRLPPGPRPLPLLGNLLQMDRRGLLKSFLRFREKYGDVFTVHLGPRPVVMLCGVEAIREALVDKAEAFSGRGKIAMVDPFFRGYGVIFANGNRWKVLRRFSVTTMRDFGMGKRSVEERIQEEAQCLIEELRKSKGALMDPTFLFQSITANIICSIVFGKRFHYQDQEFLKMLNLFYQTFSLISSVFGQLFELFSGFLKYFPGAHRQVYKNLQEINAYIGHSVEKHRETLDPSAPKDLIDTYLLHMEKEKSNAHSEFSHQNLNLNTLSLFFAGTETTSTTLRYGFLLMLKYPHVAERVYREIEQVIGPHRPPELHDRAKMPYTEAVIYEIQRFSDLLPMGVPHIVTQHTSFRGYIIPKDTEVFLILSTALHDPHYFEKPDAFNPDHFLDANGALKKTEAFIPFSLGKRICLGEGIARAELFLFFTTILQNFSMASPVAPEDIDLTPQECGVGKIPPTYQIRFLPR
# CYP2C19 = CYP2C19 (Homo sapiens, UniProt P33261)
# Chain of CYP2C19 (P33261 whole entry): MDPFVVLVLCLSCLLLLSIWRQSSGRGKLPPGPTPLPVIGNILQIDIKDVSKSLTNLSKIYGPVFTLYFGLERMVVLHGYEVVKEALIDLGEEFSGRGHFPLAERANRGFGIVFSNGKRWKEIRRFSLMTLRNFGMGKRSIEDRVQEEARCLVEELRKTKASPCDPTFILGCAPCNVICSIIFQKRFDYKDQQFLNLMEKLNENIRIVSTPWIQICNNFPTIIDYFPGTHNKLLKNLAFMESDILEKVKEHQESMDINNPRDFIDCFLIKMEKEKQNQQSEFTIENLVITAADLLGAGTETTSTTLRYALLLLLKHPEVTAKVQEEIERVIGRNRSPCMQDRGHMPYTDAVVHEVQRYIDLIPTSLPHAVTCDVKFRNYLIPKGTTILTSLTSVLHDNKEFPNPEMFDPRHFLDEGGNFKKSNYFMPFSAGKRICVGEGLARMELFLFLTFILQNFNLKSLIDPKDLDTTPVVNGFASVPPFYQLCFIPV
# ALDH-II = target: T3, ALDH-II (Homo sapiens, UniProt P00352)
# T3 sequence (P00352 1-501): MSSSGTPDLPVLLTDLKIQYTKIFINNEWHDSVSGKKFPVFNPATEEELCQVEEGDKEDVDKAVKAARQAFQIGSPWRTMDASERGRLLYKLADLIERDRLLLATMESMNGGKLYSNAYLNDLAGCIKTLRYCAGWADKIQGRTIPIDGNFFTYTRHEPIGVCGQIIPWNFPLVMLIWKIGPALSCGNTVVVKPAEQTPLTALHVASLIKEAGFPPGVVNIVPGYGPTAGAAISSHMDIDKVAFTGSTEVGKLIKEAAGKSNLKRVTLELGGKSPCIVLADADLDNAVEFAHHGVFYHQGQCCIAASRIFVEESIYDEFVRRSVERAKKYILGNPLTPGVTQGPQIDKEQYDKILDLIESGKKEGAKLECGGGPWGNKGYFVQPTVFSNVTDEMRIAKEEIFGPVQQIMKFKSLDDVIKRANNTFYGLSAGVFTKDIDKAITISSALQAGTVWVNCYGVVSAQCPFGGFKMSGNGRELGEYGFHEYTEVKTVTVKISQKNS
# [1] = animal studies, dosage range 0.001-1.0 mg/kg
# [2] = 10 mg CR, double-blind randomized study of 134 subjects with cocaine dependence, post hoc analyses
# ALDH = conditions: rat studies
# [3] = rat studies
molecule,measurement,setting,value
"O=c1c(-c2ccc(O)cc2)coc2cc(O[C@@H]3O[C@H](CO)[C@@H](O)[C@H](O)[C@H]3O)ccc12 [Daidzin, daidzin]",inhibition of ALDH-I,ALDH-I,selective potent reversible inhibitor
C#CCNC(C)Cc1ccccc1 (centres unmarked) [N-des methyl selegiline],inhibition of CYP2D6,CYP2D6,concentration dependent inhibition
same,inhibition of CYP2B6,CYP2B6,concentration dependent inhibition
same,inhibition of CYP2C19,CYP2C19,concentration dependent inhibition
N#CN [cyanamide],inhibition of ALDH-II in vitro,ALDH-II,unable to inhibit
same,inhibition of ALDH-I in vitro,ALDH-I; in vitro,unable to inhibit
C#CCN(C)[C@H](C)Cc1ccccc1 [selegiline],inhibition of CYP2D6,CYP2D6,concentration dependent inhibition
same,safety and abuse potential,[1],safe agent without potential abuse
same,"composite score of urine benzoylecgonine (BE), self report and observed improvement",[2],statistically significant effect
same,"self-reported 'high' and 'stimulated' feelings after cocaine administration, area under the curve","10 mg CR formulation, eight subjects",decreased
same,reduction in subjective euphoria,"selegiline 10 mg po/day followed by acute cocaine infusion, PET study",40%
same,inhibition of CYP2B6,CYP2B6,concentration dependent inhibition
N5-(hydroxycyclopropyl)-L-glutamine [coprine],ALDH inhibition compared to disulfiram,ALDH,more potent inhibitor
same,ethanol consumption,[3],effectively suppressed
